In brackets after ≈: the same amount, converted by molar mass.
Experiments:
Format in all cases: functional
Escherichia coli = assay: Compound (isolated from leaves of Cistus monspeliensis) was tested for antimicrobial activity against Escherichia coli (ATCC 25922)
Klebsiella pneumoniae = assay: Compound (isolated from leaves of Cistus monspeliensis) was tested for antimicrobial activity against Klebsiella pneumoniae (ATCC 13883)
[1] = tested on: Staphylococcus epidermidis; assay: Compound (isolated from leaves of Cistus monspeliensis) was tested for antimicrobial activity against Staphylococcus epidermidis (ATCC 12228)
Staphylococcus hominis = assay: Compound (isolated from leaves of Cistus monspeliensis) was tested for antimicrobial activity against Staphylococcus hominis (ATCC 27844)
Staphylococcus aureus = assay: Compound (isolated from leaves of Cistus monspeliensis) was tested for antimicrobial activity against Staphylococcus aureus (ATCC 6538)

| SMILES | MIC50 (Escherichia coli) | MIC50 (Klebsiella pneumoniae) | MIC50 [1] | MIC50 (Staphylococcus hominis) | MIC50 (Staphylococcus aureus) |
| --- | --- | --- | --- | --- | --- |
| C=C[C@@]1(C)CC[C@@H]2[C@](C)(CCC3C(C)(C)CCC[C@]32C)O1 (some centres not stated) | > 2000 µg/mL | > 2000 µg/mL |  |  |  |
| CN[C@@H]1[C@H](O[C@H]2[C@H](O[C@H]3[C@H](O)[C@@H](O)[C@H](N=C(N)N)[C@@H](O)[C@@H]3N=C(N)N)O[C@@H](C)[C@]2(O)C=O)O[C@@H](CO)[C@H](O)[C@H]1O [STREPTOMYCIN] | 0.6 µg/mL (≈ 1.03 µM) | 0.6 µg/mL (≈ 1.03 µM) | 2.1 µg/mL (≈ 3.61 µM) | 2.1 µg/mL (≈ 3.61 µM) | 2.1 µg/mL (≈ 3.61 µM) |
